{
  "source": "paper PMC9965520",
  "about": "“An Efficient Peptidomics Screening for Exogenous Substrates and Inhibitory Peptides of the Dipeptidase ACE from Milk Hydrolysate” (Pharmaceutics, 2023)",
  "target": "T1, ACE (Oryctolagus cuniculus, UniProt P12822)",
  "T1 sequence (P12822 34-1310)": "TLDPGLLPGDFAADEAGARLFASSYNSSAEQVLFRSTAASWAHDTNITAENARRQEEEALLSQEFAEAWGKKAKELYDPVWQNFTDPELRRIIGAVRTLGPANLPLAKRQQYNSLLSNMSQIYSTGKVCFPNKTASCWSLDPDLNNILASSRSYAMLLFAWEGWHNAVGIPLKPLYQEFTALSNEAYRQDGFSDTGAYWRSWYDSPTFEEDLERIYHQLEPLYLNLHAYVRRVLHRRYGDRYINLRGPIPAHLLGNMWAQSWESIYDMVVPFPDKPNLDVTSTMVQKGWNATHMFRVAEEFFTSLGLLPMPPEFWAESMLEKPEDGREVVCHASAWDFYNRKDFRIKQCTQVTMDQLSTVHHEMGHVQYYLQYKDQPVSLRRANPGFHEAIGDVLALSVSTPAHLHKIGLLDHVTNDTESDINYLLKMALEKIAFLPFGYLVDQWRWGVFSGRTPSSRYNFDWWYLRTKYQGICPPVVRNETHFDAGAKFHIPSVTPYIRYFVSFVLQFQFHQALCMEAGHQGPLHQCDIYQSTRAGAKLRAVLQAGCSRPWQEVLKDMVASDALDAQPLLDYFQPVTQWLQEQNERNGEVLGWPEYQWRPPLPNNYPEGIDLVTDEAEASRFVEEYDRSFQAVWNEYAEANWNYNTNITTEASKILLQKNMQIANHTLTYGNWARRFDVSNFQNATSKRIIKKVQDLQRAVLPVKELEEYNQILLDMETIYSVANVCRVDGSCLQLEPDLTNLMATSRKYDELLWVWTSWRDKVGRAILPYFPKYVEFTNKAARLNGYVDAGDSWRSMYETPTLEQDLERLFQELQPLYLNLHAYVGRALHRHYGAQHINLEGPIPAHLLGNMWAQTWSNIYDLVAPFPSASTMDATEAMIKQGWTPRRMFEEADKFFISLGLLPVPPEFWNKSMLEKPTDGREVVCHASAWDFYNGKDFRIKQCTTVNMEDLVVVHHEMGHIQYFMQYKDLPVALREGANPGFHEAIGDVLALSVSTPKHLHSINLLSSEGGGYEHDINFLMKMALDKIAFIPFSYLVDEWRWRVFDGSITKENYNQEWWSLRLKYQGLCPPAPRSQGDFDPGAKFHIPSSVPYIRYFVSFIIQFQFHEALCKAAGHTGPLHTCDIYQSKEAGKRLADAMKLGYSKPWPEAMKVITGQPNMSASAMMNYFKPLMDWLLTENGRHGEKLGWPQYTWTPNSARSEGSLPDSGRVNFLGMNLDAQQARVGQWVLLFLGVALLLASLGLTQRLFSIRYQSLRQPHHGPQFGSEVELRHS",
  "conditions": "Ang-I (1 μg) + peptide (1 μg), ACE 0.05 mU/µL, 200 mM borate buffer, 300 mM NaCl, pH 8.3, 37 °C, 3 h; RA% = AI/(AI+AII)x100, LC-MS SIC",
  "note": "No end group written: not given here.",
  "data": [
    {"sequence": "AYFYPELFR [AR-9]", "values": [
      {"measurement": "Ang-I remained (RA%) on co-incubation with peptide", "result": 73.9, "unit": "%"}
    ]}
  ]
}
